Laboratory results published in patent US6960597B2, “Aza-bridged-bicyclic amino acid derivatives as α4 integrin antagonists” (Orth-McNeil Pharmaceutical, Inc., priority 2000, dated 2005).
Read-outs that look alike come from different tables or passages of the source.

What was measured:
α4β1 integrin receptor = molecular target: T1, α4β1 integrin receptor (Homo sapiens, UniProt P05556+P13612); test: Ramos Cell Adhesion Assay (α4β1 Mediated Adhesion/VCAM-1); format: cell-based; conditions: Table III, read-out: Inhibition of Binding of Ramos Cells to Immobilized VCAM-1 IC50
T1 construct: Ramos Cell Adhesion Assay (α4β1 Mediated Adhesion/VCAM-1); endogenous in cells; host or cells: Ramos cells
Description: Ramos Cell Adhesion Assay (α4β1 Mediated Adhesion/VCAM-1)
(§1) Immulon 96 well plates (Dynex) were coated with 100 μL recombinant hVCAM-1 at 4.0 μg/mL in 0.05 M NaCO3 buffer pH 9.0 overnight at 4° C. (R&D Systems). Plates were washed 3 times in PBS with 1% BSA and blocked for 1 h @ room temperature in this buffer. PBS was removed and compounds to be tested (50 μL) were added at 2× concentration. Ramos cells, (50 μL at 2×10^6/mL) labeled with 5 μM Calcein AM (Molecular Probes) for 1 h at 37° C., were added to each well and allowed to adhere for 1 h at room temperature. Plates were washed 3× in PBS+1% BSA and cells were lysed for 15 minutes in 100 μL of 1 M Tris pH 8.0 with 1% SDS. The plate was read at 485 nm excitation and 530 nm emission.

human α4β7 = molecular target: T2, human α4β7 (Homo sapiens, UniProt P13612+P26010); test: α4β7-K562 Cell Adhesion Assay (α4β7 Mediated Adhesion/VCAM-1); format: cell-based; conditions: Table IV, read-out: Inhibition of Binding of K562 Cells to Immobilized VCAM-1 IC50
T2 construct: expressed in transfected cells
T2 sequence (P13612 34-1032): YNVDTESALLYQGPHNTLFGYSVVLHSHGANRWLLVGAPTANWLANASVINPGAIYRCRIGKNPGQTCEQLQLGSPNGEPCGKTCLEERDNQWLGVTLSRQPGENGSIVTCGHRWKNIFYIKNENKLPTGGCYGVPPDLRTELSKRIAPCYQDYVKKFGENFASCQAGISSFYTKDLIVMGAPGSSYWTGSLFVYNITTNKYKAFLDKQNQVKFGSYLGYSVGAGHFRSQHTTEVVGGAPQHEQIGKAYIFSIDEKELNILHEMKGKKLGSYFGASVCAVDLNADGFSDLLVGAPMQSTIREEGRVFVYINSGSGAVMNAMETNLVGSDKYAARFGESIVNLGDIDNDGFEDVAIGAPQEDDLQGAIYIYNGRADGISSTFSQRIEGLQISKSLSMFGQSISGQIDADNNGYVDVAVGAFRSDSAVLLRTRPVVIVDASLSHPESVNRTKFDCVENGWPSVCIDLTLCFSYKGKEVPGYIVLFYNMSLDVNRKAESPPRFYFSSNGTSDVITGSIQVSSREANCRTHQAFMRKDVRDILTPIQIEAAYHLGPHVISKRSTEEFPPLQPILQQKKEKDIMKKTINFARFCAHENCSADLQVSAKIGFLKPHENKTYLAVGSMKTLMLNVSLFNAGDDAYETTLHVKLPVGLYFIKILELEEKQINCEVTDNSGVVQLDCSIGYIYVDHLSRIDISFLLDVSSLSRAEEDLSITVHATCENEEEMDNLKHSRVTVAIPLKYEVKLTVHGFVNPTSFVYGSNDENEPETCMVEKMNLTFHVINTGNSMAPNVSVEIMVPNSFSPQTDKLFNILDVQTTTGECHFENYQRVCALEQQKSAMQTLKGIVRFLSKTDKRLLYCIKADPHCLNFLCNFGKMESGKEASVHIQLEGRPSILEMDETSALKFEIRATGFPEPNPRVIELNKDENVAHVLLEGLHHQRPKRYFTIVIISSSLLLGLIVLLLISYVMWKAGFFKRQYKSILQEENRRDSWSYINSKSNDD
T2 sequence (P26010 20-798): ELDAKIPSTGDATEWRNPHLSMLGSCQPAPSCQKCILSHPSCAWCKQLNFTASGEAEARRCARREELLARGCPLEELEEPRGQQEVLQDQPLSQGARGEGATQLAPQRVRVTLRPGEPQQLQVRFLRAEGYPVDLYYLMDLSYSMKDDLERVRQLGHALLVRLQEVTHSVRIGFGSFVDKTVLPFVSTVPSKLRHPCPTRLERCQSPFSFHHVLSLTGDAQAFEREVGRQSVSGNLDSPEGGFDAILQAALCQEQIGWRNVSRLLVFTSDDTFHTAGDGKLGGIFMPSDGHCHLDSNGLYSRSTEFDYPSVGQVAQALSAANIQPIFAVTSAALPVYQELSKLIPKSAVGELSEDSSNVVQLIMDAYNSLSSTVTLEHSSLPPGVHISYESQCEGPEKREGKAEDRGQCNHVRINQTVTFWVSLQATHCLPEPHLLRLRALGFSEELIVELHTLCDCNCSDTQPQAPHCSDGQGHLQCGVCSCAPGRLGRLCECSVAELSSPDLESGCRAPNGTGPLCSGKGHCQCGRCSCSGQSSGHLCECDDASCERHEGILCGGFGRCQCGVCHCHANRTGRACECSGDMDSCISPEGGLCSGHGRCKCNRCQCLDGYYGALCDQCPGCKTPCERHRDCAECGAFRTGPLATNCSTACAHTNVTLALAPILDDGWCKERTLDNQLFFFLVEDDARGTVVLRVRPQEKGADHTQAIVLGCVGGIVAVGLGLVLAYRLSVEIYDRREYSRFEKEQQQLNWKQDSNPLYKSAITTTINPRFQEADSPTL
Description: α4β7-K562 Cell Adhesion Assay (α4β7 Mediated Adhesion/VCAM-1)
as §1, with “A stable cell line of K562 cells expressing human α4β7,” for “Ramos cells,”

T1 sequence (P05556 21-798, one chain of several): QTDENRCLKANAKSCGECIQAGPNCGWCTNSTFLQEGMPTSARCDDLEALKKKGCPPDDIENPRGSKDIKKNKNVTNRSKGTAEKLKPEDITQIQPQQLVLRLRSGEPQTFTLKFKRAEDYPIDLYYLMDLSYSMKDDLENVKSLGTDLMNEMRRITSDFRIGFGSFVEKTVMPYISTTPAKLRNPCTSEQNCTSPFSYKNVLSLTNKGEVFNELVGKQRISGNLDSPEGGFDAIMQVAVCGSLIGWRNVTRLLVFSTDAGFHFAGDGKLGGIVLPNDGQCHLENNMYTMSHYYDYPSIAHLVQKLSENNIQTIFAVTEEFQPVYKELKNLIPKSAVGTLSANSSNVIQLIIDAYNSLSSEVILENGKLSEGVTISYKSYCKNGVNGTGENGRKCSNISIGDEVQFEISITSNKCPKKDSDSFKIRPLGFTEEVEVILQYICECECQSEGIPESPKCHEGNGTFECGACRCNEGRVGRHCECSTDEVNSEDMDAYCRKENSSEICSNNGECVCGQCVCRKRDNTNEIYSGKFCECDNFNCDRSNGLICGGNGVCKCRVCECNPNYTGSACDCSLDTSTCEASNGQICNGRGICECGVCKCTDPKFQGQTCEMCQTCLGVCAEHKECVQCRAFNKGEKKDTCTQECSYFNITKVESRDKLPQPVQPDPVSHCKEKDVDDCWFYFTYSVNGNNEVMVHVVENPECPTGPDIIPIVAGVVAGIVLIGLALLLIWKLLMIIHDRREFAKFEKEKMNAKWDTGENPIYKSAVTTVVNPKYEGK

Row | IC50 (α4β1 integrin receptor) | IC50 (human α4β7; μM) | IC50 (human α4β7) | IC50 (α4β1 integrin receptor; μM) | SMILES
1 | – | > 10 µM | – | > 5 µM | Cc1ccc(S(=O)(=O)N2C3CCC(CC3)C2C(=O)N[C@@H](Cc2ccc(-n3cccc3)cc2)C(=O)O)cc1 (stereo partly drawn) [Cpd 32, 4-(1H-pyrrol-1-yl)-N-[[2-[(4-methylphenyl)sulfonyl]-2-azabicyclo[2.2.2]oct-3-yl]carbonyl]-L-phenylalanine]
2 | – | > 10 µM | – | > 5 µM | Cc1ccc(S(=O)(=O)N2C3CCC(CC3)C2C(=O)N[C@@H](Cc2ccc(-c3ccccc3)cc2)C(=O)O)cc1 (stereo partly drawn) [Cpd 33, 4-phenyl-N-[[2-[(4-methylphenyl)sulfonyl]-2-azabicyclo[2.2.2]oct-3-yl]carbonyl]l-L-phenylalanine]
3 | – | > 10 µM | – | > 5 µM | O=C(Nc1ccc(C[C@H](NC(=O)C2C3CCC(CC3)N2S(=O)(=O)c2ccccc2)C(=O)O)cc1)Nc1c(F)cccc1F (stereo partly drawn) [Cpd 34, 4-[[[(2,6-difluorophenyl)amino]carbonyl]amino]-N-[[2-(phenylsulfonyl)-2-azabicyclo[2.2.2]oct-3-yl]carbonyl]-L-phenylalanine]
4 | – | > 10 µM | – | > 5 µM | Cc1ccc(S(=O)(=O)N2C3CCC(CC3)C2C(=O)N[C@@H](Cc2cccc(NC(=O)c3c(F)cccc3F)c2)C(=O)O)cc1 (stereo partly drawn) [Cpd 35, 3-[(2,6-difluorobenzoyl)amino]-N-[[2-[(4-methylphenyl)sulfonyl]-2-azabicyclo[2.2.2]oct-3-yl]carbonyl]-L-phenylalanine]
5 | – | > 10 µM | – | > 5 µM | COc1cccc(OC)c1C(=O)Nc1cccc(C[C@H](NC(=O)C2C3CCC(CC3)N2S(=O)(=O)c2ccc(C)cc2)C(=O)O)c1 (some centres unmarked) [Cpd 36, 3-[(2,6-dimethoxybenzoyl)amino]-N-[[2-[(4-methylphenyl)sulfonyl]-2-azabicyclo[2.2.2]oct-3-yl]carbonyl]phenylalanine]
6 | – | > 10 µM | – | > 5 µM | Cc1ccc(S(=O)(=O)N2C3CCC(CC3)C2C(=O)N[C@@H](Cc2cccc(NC(=O)c3c(Cl)cccc3Cl)c2)C(=O)O)cc1 (some centres unmarked) [Cpd 37, 3-[(2,6-dichlorobenzoyl)amino]-N-[[2-[(4-methylphenyl)sulfonyl]-2-azabicyclo[2.2.2]oct-3-yl]carbonyl]phenylalanine]
7 | – | > 10 µM | – | > 5 µM | CN(C(=O)C1C2CCC(CC2)N1S(=O)(=O)c1ccccc1)[C@@H](Cc1ccc(OCc2c(Cl)cccc2Cl)cc1)C(=O)O (some centres unmarked) [Cpd 38, O-[(2,6-dichlorophenyl)methyl]-methyl-N-[[2-(phenylsulfonyl)-2-azabicyclo[2.2.2]oct-3-yl]carbonyl]tyrosine]
8 | – | > 10 µM | – | > 5 µM | CN(C(=O)[C@H]1C2CCC(CC2)N1S(=O)(=O)c1ccccc1)[C@@H](Cc1ccc(NC(=O)c2c(Cl)cccc2Cl)cc1)C(=O)O [Cpd 39, 4-[(2,6-dichlorobenzoyl)amino]-N-methyl-N-[[(3R)-2-(phenylsulfonyl)-2-azabicyclo[2.2.2]oct-3-yl]carbonyl]-L-phenylalanine]
9 | 0.293 µM | – | 2.51 µM | – | O=C(N[C@@H](Cc1ccc(OCc2c(Cl)cccc2Cl)cc1)C(=O)O)C1C2C=CC(CC2)N1S(=O)(=O)c1ccccc1 (stereo partly drawn) [Cpd 40, O-[(2,6-dichlorophenyl)methyl]-N-[[2-(phenylsulfonyl)-2-azabicyclo[2.2.2]oct-5-en-3-yl]carbonyl]-L-tyrosine]

Second part, the compound before the results:

Row | SMILES | IC50 (α4β1 integrin receptor) | IC50 (human α4β7; μM) | IC50 (human α4β7) | IC50 (α4β1 integrin receptor; μM)
10 | Cc1ccc(S(=O)(=O)N2C3CCC(CC3)C2C(=O)N[C@@H](Cc2ccc(NC(=O)c3ccccc3)cc2)C(=O)O)cc1 (stereo partly drawn) [Cpd 25, 4-(benzoylamino)-N-[[2-[(4-methylphenyl)sulfonyl]-2-azabicyclo[2.2.2]oct-3-yl]carbonyl]-L-phenylalanine] | 0.903 µM | > 10 µM | – | –
11 | COc1ccc(OC)c(C(=O)c2ccc(C(=O)Nc3ccc(C[C@H](NC(=O)C4C5CCC(CC5)N4S(=O)(=O)c4ccc(C)cc4)C(=O)O)cc3)cc2)c1 (stereo partly drawn) [Cpd 26, 4-[[4-(2,5-dimethoxybenzoyl)benzoyl]amino]-N-[[2-[(4-methylphenyl)sulfonyl]-2-azabicyclo[2.2.2]oct-3-yl]carbonyl]-L-phenylalanine] | 0.669 µM | > 10 µM | – | –
12 | Cc1ccc(S(=O)(=O)N2C3CCC(CC3)C2C(=O)N[C@@H](Cc2ccc(NC(=O)Cc3c(Cl)cccc3Cl)cc2)C(=O)O)cc1 (stereo partly drawn) [Cpd 27, 4-[[(2,6-dichlorophenyl)acetyl]amino]-N-[[2-[(4-methylphenyl)sulfonyl]-2-azabicyclo[2.2.2]oct-3-yl]carbonyl]-L-phenylalanine] | 1.09 µM | > 10 µM | – | –
13 | O=C(Nc1ccc(C[C@H](NC(=O)C2C3CCC(CC3)N2S(=O)(=O)c2ccccc2)C(=O)O)cc1)Nc1c(Cl)cccc1Cl (stereo partly drawn) [Cpd 28, 4-[[[(2,6-dichlorophenyl)amino]carbonyl]amino]-N-[[2-(phenylsulfonyl)-2-azabicyclo[2.2.2]oct-3-yl]carbonyl]-L-phenylalanine] | 1.6 µM | > 5 µM | – | –
14 | Cc1ccc(S(=O)(=O)N2C3CCC(CC3)[C@H]2C(=O)N[C@@H](Cc2ccc(OCc3c(Cl)cccc3Cl)cc2)C(=O)O)cc1 [Cpd 29, 4-[(2,6-dichlorophenyl)methoxy]-N-[[(3S)-2-[[4-methylphenyl)sulfonyl]-2-azabicyclo[2.2.2]oct-3-yl]carbonyl]-L-phenylalanine] | 0.058 µM | – | 4.94 µM | –
15 | Cc1ccc(S(=O)(=O)N2C3CCC(CC3)C2C(=O)N[C@@H](Cc2ccc(OCc3ccccc3)cc2)C(=O)O)cc1 (stereo partly drawn) [Cpd 30, 4-(phenylmethoxy)-N-[[2-[(4-methylphenyl)sulfonyl]-2-azabicyclo[2.2.2]oct-3-yl]carbonyl]-L-phenylalanine] | – | > 10 µM | – | > 5 µM
16 | Cc1ccc(S(=O)(=O)N2C3CCC(CC3)C2C(=O)N[C@@H](Cc2ccc(NC(=O)c3c(C(C)C)cc(C(C)C)cc3C(C)C)cc2)C(=O)O)cc1 (stereo partly drawn) [Cpd 31, 4-[[2,4,6-tris(1-methylethyl)benzoyl]amino]-N-[[2-[(4-methylphenyl)sulfonyl]-2-azabicyclo[2.2.2]oct-3-yl]carbonyl]-L-phenylalanine] | – | > 10 µM | – | > 5 µM
